Measurements taken from patent publication US7420056B2, “Substituted bicyclic imidazo-3-ylamine compounds” (Gruenenthal GmbH, priority 2004, dated 2008).
pIC50: −log10 of the molar value. Counter-ions that a name gives are not always drawn.

Target: mGluR5 receptor (Sus scrofa, UniProt I3LUI7)
Test: Affinity for the mGluR5 receptor: inhibition of 3[H]-MPEP binding in pig brain homogenate
Details: 10 μM compound, 5 nM 3[H]-MPEP, read-out: mGluR5 receptor inhibition of ^3[H]-MPEP binding [10 μM] in % at a concentration of the example compounds of 10 μM
How it was run: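 Pig brain membranes (450 μg protein; hemispheres without medulla, cerebellum and pons) in 30 mM Hepes pH 8.0 were incubated 60 min at room temperature with 5 nM [3H]-MPEP and compound at 10 μM. Bound radioactivity was filtered and counted. Nonspecific binding was defined with 10 μM MPEP.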

Sequence of mGluR5 receptor (I3LUI7 19-1212): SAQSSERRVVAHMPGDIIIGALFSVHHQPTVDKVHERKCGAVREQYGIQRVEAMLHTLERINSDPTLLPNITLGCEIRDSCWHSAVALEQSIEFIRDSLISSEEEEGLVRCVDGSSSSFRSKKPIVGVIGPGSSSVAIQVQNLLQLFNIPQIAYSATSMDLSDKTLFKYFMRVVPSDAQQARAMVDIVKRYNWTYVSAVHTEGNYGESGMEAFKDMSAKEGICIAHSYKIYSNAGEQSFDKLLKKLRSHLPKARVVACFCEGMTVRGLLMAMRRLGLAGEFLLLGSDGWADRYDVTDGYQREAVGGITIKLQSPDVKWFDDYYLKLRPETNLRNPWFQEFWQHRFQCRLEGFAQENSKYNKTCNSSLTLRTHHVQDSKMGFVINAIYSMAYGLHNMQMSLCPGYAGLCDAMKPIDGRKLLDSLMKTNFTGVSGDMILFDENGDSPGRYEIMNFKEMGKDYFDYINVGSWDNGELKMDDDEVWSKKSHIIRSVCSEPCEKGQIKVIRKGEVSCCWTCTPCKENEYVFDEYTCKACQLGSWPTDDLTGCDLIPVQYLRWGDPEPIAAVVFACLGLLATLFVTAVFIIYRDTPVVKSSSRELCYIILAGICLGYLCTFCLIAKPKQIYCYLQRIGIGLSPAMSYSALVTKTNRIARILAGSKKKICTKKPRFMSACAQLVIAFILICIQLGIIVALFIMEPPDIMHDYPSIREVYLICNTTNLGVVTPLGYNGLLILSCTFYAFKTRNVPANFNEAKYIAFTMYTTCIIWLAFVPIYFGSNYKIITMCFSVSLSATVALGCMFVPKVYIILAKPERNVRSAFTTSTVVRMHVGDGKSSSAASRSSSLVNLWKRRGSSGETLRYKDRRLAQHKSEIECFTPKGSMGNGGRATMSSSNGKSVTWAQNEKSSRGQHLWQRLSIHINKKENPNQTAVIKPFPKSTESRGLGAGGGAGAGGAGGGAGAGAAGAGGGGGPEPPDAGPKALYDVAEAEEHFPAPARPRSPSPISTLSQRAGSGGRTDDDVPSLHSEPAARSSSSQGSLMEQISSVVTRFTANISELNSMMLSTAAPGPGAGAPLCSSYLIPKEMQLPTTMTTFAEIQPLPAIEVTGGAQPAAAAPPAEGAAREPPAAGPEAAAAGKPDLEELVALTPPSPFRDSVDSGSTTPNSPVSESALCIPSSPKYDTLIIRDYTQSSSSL

Compound | inhibition at 10 µM [%]
COc1ccccc1CNc1c(-c2ccc(C#Cc3ccccc3)s2)nc2ccccn12 [Example 38, (2-methoxy-benzyl)-[2-(5-phenylethynyl-thiophen-2-yl)-imidazo[1,2-a]pyridin-3-yl]-amine] | 87
C(#Cc1ccccn1)c1cccc(-c2nc3ncccn3c2NC2CCCCC2)c1 [Example 254, N-cyclohexyl-2-(3-(pyridin-2-ylethynyl)phenyl)imidazo[1,2-a]pyrimidin-3-amine] | 77
COc1ccc(CNc2c(-c3ccc(C#Cc4ccccc4)s3)nc3cc(C)ccn23)cc1 [Example 12, (4-methoxy-benzyl)-[7-methyl-2-(5-phenylethynyl-thiophen-2-yl)-imidazo[1,2-a]pyridin-3-yl]-amine] | 96
COc1ccc(CNc2c(-c3ccc(C#Cc4ccccc4)s3)nc3c(C)cccn23)cc1 [Example 13, (4-methoxy-benzyl)-[8-methyl-2-(5-phenylethynyl-thiophen-2-yl)-imidazo[1,2-a]pyridin-3-yl]-amine] | 96
COc1cccc(CNc2c(-c3ccc(C#Cc4ccccc4)s3)nc3c(OCc4ccccc4)cccn23)c1 [Example 24, [8-benzyloxy-2-(5-phenylethynyl-thiophen-2-yl)-imidazo[1,2-a]pyridin-3-yl]-(3-methoxy-benzyl)-amine] | 94
C(#Cc1ccc(-c2nc3cnccn3c2N(Cc2cccnc2)Cc2cccnc2)s1)c1ccccc1 [Example 79, [2-(5-phenylethynyl-thiophen-2-yl)-imidazo[1,2-a]pyrazin-3-yl]-bis-pyridin-3-ylmethyl-amine] | 35
COc1ccccc1CNc1c(-c2ccc(C#Cc3ccccc3)s2)nc2nc(C)ccn12 [Example 40, (2-methoxy-benzyl)-[7-methyl-2-(5-phenylethynyl-thiophen-2-yl)-imidazo[1,2-a]pyrimidin-3-yl]-amine] | 87
CC(C)(C)CC(C)(C)Nc1c(-c2ccc(C#Cc3ccccc3)nc2)nc2ccccn12 [Example 284, 2-(6-(phenylethynyl)pyridin-3-yl)-N-(2,4,4-trimethylpentan-2-yl)imidazo[1,2-a]pyridin-3-amine] | 68
Cc1ccn2c(Nc3ccc(F)cc3)c(-c3cccc(C#Cc4ccccn4)c3)nc2c1 [Example 277, N-(4-fluorophenyl)-7-methyl-2-(3-(pyridin-2-ylethynyl)phenyl)imidazo[1,2-a]pyridin-3-amine] | 95
C(#Cc1csc(-c2nc3cnccn3c2NCC2CCCCC2)c1)c1ccccc1 [Example 206, N-(cyclohexylmethyl)-2-(4-(phenylethynyl)thiophen-2-yl)imidazo[1,2-a]pyrazin-3-amine] | 63
COc1ccc(CNc2c(-c3ccc(C#Cc4ccccc4)s3)nc3cccc(C)n23)cc1 [Example 10, (4-methoxy-benzyl)-[5-methyl-2-(5-phenylethynyl-thiophen-2-yl)-imidazo[1,2-a]pyridin-3-yl]-amine] | 95
C(#Cc1ccc(-c2nc3cnccn3c2NC2CCCCC2)o1)c1ccccn1 [Example 247, N-cyclohexyl-2-(5-(pyridin-2-ylethynyl)furan-2-yl)imidazo[1,2-a]pyrazin-3-amine] | 83
C(#Cc1ccc(-c2nc3ccccn3c2NC2CCCCC2)cn1)c1ccccc1 [Example 283, N-cyclohexyl-2-(6-(phenylethynyl)pyridin-3-yl)imidazo[1,2-a]pyridin-3-amine] | 82
Cc1cccc(C#Cc2cccc(-c3nc4ccc(Cl)cn4c3NC(C)(C)C)c2)n1 [Example 320, N-tert-butyl-6-chloro-2-(3-((6-methylpyridin-2-yl)ethynyl)phenyl)imidazo[1,2-a]pyridin-3-amine] | 77
Cc1cccc(C#Cc2cccc(-c3nc4ncccn4c3NC3CCCC3)c2)n1 [Example 259, N-cyclopentyl-2-(3-((6-methylpyridin-2-yl)ethynyl)phenyl)imidazo[1,2-a]pyrimidin-3-amine] | 82
Fc1ccc(Nc2c(-c3cccc(C#Cc4ccccn4)c3)nc3ccccn23)cc1 [Example 263, N-(4-fluorophenyl)-2-(3-(pyridin-2-ylethynyl)phenyl)imidazo[1,2-a]pyridin-3-amine] | 85
COc1cccc(CNc2c(-c3ccc(C#Cc4ccccc4)s3)nc3nc(C)ccn23)c1 [Example 47, (3-methoxy-benzyl)-[7-methyl-2-(5-phenylethynyl-thiophen-2-yl)-imidazo[1,2-a]pyrimidin-3-yl]-amine] | 79
COc1cccc(CCNc2c(-c3cc(C#Cc4ccccc4)cs3)nc3cccc(C)n23)c1 [Example 199, N-(3-methoxyphenethyl)-5-methyl-2-(4-(phenylethynyl)thiophen-2-yl)imidazo[1,2-a]pyridin-3-amine] | 57
CC(C)(C)CC(C)(C)Nc1c(-c2ccc(C#Cc3ccccc3)s2)nc2c(OCc3ccccc3)cccn12 [Example 218, 8-(benzyloxy)-2-(5-(phenylethynyl)thiophen-2-yl)-N-(2,4,4-trimethylpentan-2-yl)imidazo[1,2-a]pyridin-3-amine] | 38
Cc1ccn2c(NC(C)(C)CC(C)(C)C)c(-c3ccc(C#Cc4ccccn4)s3)nc2c1 [Example 275, 7-methyl-2-(5-(pyridin-2-ylethynyl)thiophen-2-yl)-N-(2,4,4-trimethylpentan-2-yl)imidazo[1,2-a]pyridin-3-amine] | 85
COc1cccc(Nc2c(-c3ccc(C#Cc4ccccc4)s3)nc3c(OCc4ccccc4)cccn23)c1 [Example 20, [8-benzyloxy-2-(5-phenylethynyl-thiophen-2-yl)-imidazo[1,2-a]pyridin-3-yl]-(3-methoxy-phenyl)-amine] | 79
Clc1ccc2nc(-c3cccc(C#Cc4ccccn4)c3)c(NC3CCCCC3)n2c1 [Example 312, 6-chloro-N-cyclohexyl-2-(3-(pyridin-2-ylethynyl)phenyl)imidazo[1,2-a]pyridin-3-amine] | 64
CCCCNc1c(-c2cc(C#Cc3ccccc3)cs2)nc2cnccn12 [Example 57, butyl-[2-(4-phenylethynyl-thiophen-2-yl)-imidazo[1,2-a]pyrazin-3-yl]-amine] | 94
Cc1cccc(C#Cc2cccc(-c3nc4cccc(C)n4c3NC(C)(C)CC(C)(C)C)c2)n1 [Example 291, 5-methyl-2-(3-((6-methylpyridin-2-yl)ethynyl)phenyl)-N-(2,4,4-trimethylpentan-2-yl)imidazo[1,2-a]pyridin-3-amine] | 92
Cc1cccn2c(NC(C)c3ccccc3)c(-c3ccc(C#Cc4ccccc4)s3)nc12 (stereo not shown) [Example 35, [8-methyl-2-(5-phenylethynyl-thiophen-2-yl)-imidazo[1,2-a]pyridin-3-yl]-(1-phenyl-ethyl)-amine] | 95

Same assay, conditions: 3[H]-MPEP binding

Compound | pIC50
CC(C)(C)Nc1c(-c2ccc(C#Cc3ccccc3O)s2)nc2cnccn12 [Example 153, 2-((5-(3-(tert-butylamino)imidazo[1,2-a]pyrazin-2-yl)thiophen-2-yl)ethynyl)phenol] | 5.52
CC(C)(C)Nc1c(-c2cnc(C#Cc3ccccc3)s2)nc2cnccn12 [Example 146, N-tert-butyl-2-(2-(phenylethynyl)thiazol-5-yl)imidazo[1,2-a]pyrazin-3-amine] | 7.46
CC(C)(C)CC(C)(C)Nc1c(-c2ccc(C#Cc3ccncc3)s2)nc2cnccn12 [Example 61, [2-(5-pyridin-4-ylethynyl-thiophen-2-yl)-imidazo[1,2-a]pyrazin-3-yl]-(1,1,3,3-tetramethyl-butyl)-amine] | 7.37
CC(C)(C)Nc1c(-c2ccc(C#Cc3ccc(C#N)cc3)s2)nc2cnccn12 [Example 144, 4-((5-(3-(tert-butylamino)imidazo[1,2-a]pyrazin-2-yl)thiophen-2-yl)ethynyl)benzonitrile hydrochloride] | 5.43
CC(C)(C)Nc1c(-c2ccc(C#Cc3ccc(O)cc3)s2)nc2cnccn12 [Example 121, 4-((5-(3-(tert-butylamino)imidazo[1,2-a]pyrazin-2-yl)thiophen-2-yl)ethynyl)phenol hydrochloride] | 5.60
CN(c1c(-c2ccc(C#Cc3ccccc3)s2)nc2cnccn12)C(C)(C)C [Example 89, N-tert-butyl-N-methyl-2-(5-(phenylethynyl)thiophen-2-yl)imidazo[1,2-a]pyrazin-3-amine] | 7.35
CC(C)(C)Nc1c(-c2ccc(C#Cc3cccc(C#N)c3)s2)nc2cnccn12 [Example 140, 3-((5-(3-(tert-butylamino)imidazo[1,2-a]pyrazin-2-yl)thiophen-2-yl)ethynyl)benzonitrile hydrochloride] | 7.59
CC(C)(C)CC(C)(C)Nc1c(-c2ccc(C#Cc3ccccc3)s2)nc2ncccn12 [Example 85, 2-(5-(phenylethynyl)thiophen-2-yl)-N-(2,4,4-trimethylpentan-2-yl)imidazo[1,2-a]pyrimidin-3-amine] | 5.70
CC(C)(C)Nc1c(-c2ccc(C#Cc3ccccn3)s2)nc2cnccn12 [Example 77, tert-butyl-[2-(5-pyridin-2-ylethynyl-thiophen-2-yl)-imidazo[1,2-a]pyrazin-3-yl]-amine] | 8.24
Cc1cc(C#Cc2ccccn2)sc1-c1nc2cnccn2c1NC(C)(C)C [Example 183, N-tert-butyl-2-(3-methyl-5-(pyridin-2-ylethynyl)thiophen-2-yl)imidazo[1,2-a]pyrazin-3-amine hydrochloride] | 6.64
CC(C)Nc1c(-c2ccc(C#Cc3ccccc3)s2)nc2cnccn12 [Example 109, N-isopropyl-2-(5-(phenylethynyl)thiophen-2-yl)imidazo[1,2-a]pyrazin-3-amine] | 6.52
CC(C)(C)Nc1c(-c2ccc(C#Cc3ccccc3)s2)nc2c3ccccc3ccn12 [Example 125, N-tert-butyl-2-(5-(phenylethynyl)thiophen-2-yl)imidazo[2,1-a]isoquinolin-3-amine] | 5.19
